Patent publication US20240148917A1, “PNA PROBES FOR PRETARGETED IMAGING AND THERAPY” (Zytox Therapeutics AB, priority 2020, published 2024)
Where “and” joins values, the source holds several entries; their conditions need not be identical. Equal values may be shown once. {DOTA-AEEA-S-S} = N-terminal DOTA chelator joined through an AEEA linker and two serines; {EEY-NH2} = C-terminal Glu-Glu-Tyr amide

What was measured:
[1] = test system: ZHER2:342-SR-HP15; assay: SPR hybridization of complementary PNA probes to immobilized ZHER2:342-SR-HP15; type: binding; details: for kd: dissociation 10 000 s; for affinity to ZHER2:342-SR-HP15 relative to HP16: SPR, kd too slow to determine
Method: The kinetic parameters for hybridization of the PNA probes were analyzed using surface plasmon resonance (SPR) on a Biacore™ 8K instrument (GE Healthcare). Dextran chips Series S Sensor CM5 (GE Healthcare), were functionalized with ZHER2:342-SR-HP15 on four surfaces to 385, 194, 185 and 353 resonance units (RU) using standard amine coupling procedures. A reference surface on each chip was subjected to activation followed by deactivation. The complementary PNA probes HP16, HP17, HP18 and HP19 were injected at 5 concentrations; 22.6, 45.3, 90.6, 181.25 and 362.5 nM using a single cycle injection. Association for each concentration was allowed for 300 s, followed by the next injection and association phase. After injection of the final concentration, dissociation was allowed for 10 000 s (2 h 47 min) before regeneration with 10 mM HCl for 30 s followed by 15 mM NaOH for 30 s. All runs were performed in PBST (0.05% Tween-20) pH 7.4 using a flow rate of […] at 25° C. Kinetic parameters were calculated using 1:1 binding model in Biacore Insight Evaluation software.

[2] = In vitro stability of 177Lu-labeled probes (EDTA challenge, PBS control); type: physicochemical; details: 177Lu-labeled probe, 500-fold molar excess of EDTA
Method: To evaluate stability, a fraction of the freshly radiolabeled conjugate (0.4 μg) was incubated with 500-fold molar excess of EDTA for 60 min at 37° C. Incubation was also performed in PBS as a control. The test was run in triplicates.

[3] = test system: SKOV3 xenografts; assay: Estimated dosimetry: areas under time-activity plots for kidney and tumor; type: in vivo, BALB/c nu/nu mice; details: non-decay corrected data, 4 and 144 h, pretargeted
Method: To estimate a ratio of absorbed doses in tumor and kidneys, cumulated activity in kidney and tumor were assessed. The estimation was based on a clinically validated two time point approach (Freedman 2020). The biodistribution data were non-decay corrected and areas under time-activity plot was calculated using GraphPad Prism software. The assumptions were that the main absorbed dose will be due to beta-particles, as cross-doses would be negligible, and the absorbed fraction would be equal to 1.

[4] = test system: HP15; assay: Melting temperature of PNA hybridization complexes with HP15 (UV absorbance at 260 nm); type: physicochemical; details: duplex with HP15, monitored at 260 nm
Method: Melting temperatures for HP15:HP16, HP15:HP17 and HP15:HP18 were determined by monitoring UV absorbance at 260 nm (Chirascan™, Applied Photophysics) at a temperature range from 20 to 95° C., using a temperature change of 1° C./min. The PNA complexes were heated to 80° C. for 5 min and were then allowed to hybridize at room temperature for 5 min prior to UV monitoring at room temperature for 5 min. CD spectra were collected before and after determination of thermal denaturation. The melting temperature for the HP15:HP19 complex was determined using a Varian Cary 50 Bio UV-visual spectrophotometer equipped with a single-cell Peltier thermostat controlled cuvette holder. The temperature in the cell was adjusted at a speed of 0.5° C./min between 20 to 80° C., and measurements were taken at 260 nm after a 60 s equilibration at each temperature point.

[5] = binding to immobilized ZHER2:342-SR-HP15, SPR

Substance	ka [1, 5]	Kd ([1]; binding to immobilized ZHER2:342-SR-HP15, SPR, 25° C., 1:1 model)	kd [1, 5]	Stability (×500 EDTA), 37° C., 1 h [2]	Tumor-to-kidney ratio (areas under time-activity plots) [3]	Tm [4]	Kd ([1]; interaction with HP15, SPR)	affinity to ZHER2:342-SR-HP15 relative to HP16 [1]
DOTA-AEEA-S-S-a-a-c-a-c-c-a-g-g-E-E-Y-NH2 (AACACCAGG; chemistry not fully specified) [HP16, secondary probe, 9-mer PNA]	46000 M⁻¹ s⁻¹	~0.28 nM and 0.28 nM	1.2e-05 s⁻¹	100 ± 0	3.8	73 °C	–	–
DOTA-AEEA-S-S-a-c-c-a-g-g-E-E-Y-NH2 [HP19]	2.1e+07 M⁻¹ s⁻¹	–	0.072 s⁻¹	–	–	55 °C	3.4 nM	–
DOTA-AEEA-S-S-a-t-c-a-a-c-a-c-c-a-g-g-E-E-Y-NH2 (ATCAACACCAGG; chemistry not fully specified) [HP17, secondary probe, 12-mer PNA]	43000 M⁻¹ s⁻¹	–	too slow to be determined	100 ± 0	2.8	75 °C	–	estimated to be higher
DOTA-AEEA-S-S-a-t-c-a-t-c-a-a-c-a-c-c-a-g-g-E-E-Y-NH2 (ATCATCAACACCAGG; all peptide nucleic acid (PNA), 5' {DOTA-AEEA-S-S}, 3' {EEY-NH2}) [HP18, secondary probe, 15-mer PNA]	57000 M⁻¹ s⁻¹	–	too slow to be determined	100 ± 0	2.0	87 °C	–	estimated to be higher
DOTA-AEEA-S-S-g-a-c-t-a-c-a-t-c-c-a-g-a-c-t-E-E-Y-NH2 (GACTACATCCAGACT; all peptide nucleic acid (PNA), 5' {DOTA-AEEA-S-S}, 3' {EEY-NH2}) [HP2, first-generation secondary PNA probe (Westerlund et al, 2015), reference compound]	–	–	–	–	2.0	–	–	–
